Results on eight compounds are retold here after publication PMC9100072, “Modulation of the MOP Receptor (μ Opioid Receptor) by Imidazo[1,2-a]imidazole-5,6-Diones: In Search of the Elucidation of the Mechanism of Action” (Molecules, 2022).

Several values for one entry are separate records, joined by “and”; a condition that tells them apart may be missing. Equal values may be shown once. Read-outs that look alike come from different tables or passages of the source.

For series [1], the target named is T1, human μ-opioid (OP3) receptor (Homo sapiens, UniProt P35372). In words: cell-based. To be noted: for Emax at 0.03 µM / Emax: U2OS; for Emax at 0.03 µM: read-out: Emax% (EC87: 30 nM) Antagonist Mode.
T1 sequence (P35372 whole entry): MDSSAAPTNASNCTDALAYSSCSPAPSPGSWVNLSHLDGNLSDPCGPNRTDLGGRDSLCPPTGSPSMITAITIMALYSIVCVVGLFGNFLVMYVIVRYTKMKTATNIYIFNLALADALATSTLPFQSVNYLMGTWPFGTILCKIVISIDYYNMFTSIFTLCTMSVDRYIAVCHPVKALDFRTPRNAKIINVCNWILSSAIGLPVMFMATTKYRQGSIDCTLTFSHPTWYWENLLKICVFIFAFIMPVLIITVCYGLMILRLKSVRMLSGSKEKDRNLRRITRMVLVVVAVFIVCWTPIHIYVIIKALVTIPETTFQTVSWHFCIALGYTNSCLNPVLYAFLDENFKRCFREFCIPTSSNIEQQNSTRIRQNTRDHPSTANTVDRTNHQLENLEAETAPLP
In series [2] the target is T2, human μ-opioid receptor (Homo sapiens, UniProt P35372).
T2 construct: purchased Perkin Elmer ES-542-M400UA; host or cells: CHO-K1 cells, stably transfected (membranes)
T2 sequence (P35372 whole entry): as above
The series can be described thus: biochemical. The format is binding. As to conditions: for binding to the μ-opioid receptor: tested concentrations 10^−5–10^−10 M.
Procedure: The reaction was terminated by rapid filtration through GF/B filter mate presoaked with 0.5% polyethyleneimine for 30 min. […] Data were fitted to a one-site curve-fitting equation with Prism 6 (GraphPad Software), and Ki values were estimated from the Cheng–Prusoff equation.

Series [3] addresses T1, human μ-opioid (OP3) receptor. In words: cell-based. The arrangement: Emax: dose or concentration left out as unconfirmed. The format is cell-based.
Setting [4] is: read-out: Emax% (EC20: 1 nM) Antagonist Mode.
Where [5] appears, read: CHO-K1; read-out: Emax% Agonist Mode.
Setting [6] is: CHO-K1; read-out: Emax% Antagonist Mode.
Setting [7] is: CHO-K1, read-out: Emax% Antagonist Mode.

As to `O=C1N=C2N(CCN2c2cccc(Cl)c2)C1=O` [1d], the melting point (commonly the temperature, or range, at which the solid turns liquid) fell in the range of 279 to 280 °C. The Emax (usually the greatest response seen or fitted, relative to the assay's reference) at 0.03 µM in series [1] was determined as 9%. Further, the Emax in series [1] (setting [4]) is 92%. The Emax in series [1] (read-out: Emax% Agonist Mode) was determined as 15%. Moreover, the “binding to the μ-opioid receptor” value in series [2] is reported as “No binding”. Moreover, the Emax in series [3] (setting [5]) was 13%. Moreover, in series [3] (setting [6]), the maximal effect (Emax) is 22%, the Emax at 0.0046 µM is 4% and the Emax at 0.03 µM turned out to be 5%.

As to `O=C1N=C2N(CCN2c2ccccc2)C1=O` [1a], the Emax at 0.03 µM in series [1] worked out at 22%; in series [3] (setting [6]), 9%. Further, the Emax in series [1] (setting [4]) was 92%; in series [1] (read-out: Emax% Agonist Mode) it was 8%; in series [3] (setting [5]), 15%; in series [3] (setting [6]) it was 6%. In addition, the “binding to the μ-opioid receptor” value in series [2] was “No binding”. In addition, the Emax at 0.0046 µM in series [3] (setting [6]) was 4%.

Take `COC(=O)/C=C/C(=O)N[C@@H]1CC[C@@]2(O)[C@H]3Cc4ccc(O)c5c4[C@@]2(CCN3CC2CC2)[C@H]1O5` [ß-FUNALTREXAMINE, beta-funaltrexamine, reference compound]: in series [1], the “Emax% (EC20: 1 nM) Antagonist Mode” value turned out to be 122% and the “Emax% (EC87: 30 nM) Antagonist Mode” value stood at 127%. In addition, the “Emax% Agonist Mode” value in series [1] (β-arrestin recruitment, fraction of effect of DAMGO) is given as 10%. The “pKi Range” value in series [2] is 9.13 (9.10–9.15). For the same compound, in series [3], the “Emax% Agonist Mode” value is 17%; the “Emax% Antagonist Mode” value was 66% and 40% and 46% and 42%.

Take `C[C@@H](O)[C@H](NC(=O)[C@H]1NC(=O)[C@H]([C@@H](C)O)NC(=O)[C@H](CCCNC(=N)N)NC(=O)[C@@H](Cc2c[nH]c3ccccc23)NC(=O)[C@H](Cc2ccc(O)cc2)NC(=O)[C@@H](NC(=O)[C@H](N)Cc2ccccc2)CSSC1(C)C)C(N)=O` [CTAP, {d-Phe}-Cys-Tyr-{d-Trp}-Arg-Thr-{Pen}-Thr-NH2 (disulfide bridge: Cys2-Pen7), reference compound]: in series [2], the Ki (as a rule, a measure of affinity in units of concentration, obtained from inhibition or displacement) is 4.9 nM. For the same compound, in series [3] (CHO-K1, read-out: Emax% Agonist Mode), the Emax was determined as 12%. In series [3] (setting [7]), the Emax came out at 100%, the Emax at 0.0046 µM was found to be 100% and the Emax at 0.03 µM is 116%.

For the compound `O=C1N=C2N(CCN2c2ccc(Cl)cc2)C1=O` [1e], the Emax at 0.03 µM in series [1] amounted to 19%; in series [3] (setting [6]) it was 5%. The Emax came out at 89% in series [1] (setting [4]), 14% in series [1] (read-out: Emax% Agonist Mode), 13% in series [3] (setting [5]) and 8% in series [3] (setting [6]). Besides, the “binding to the μ-opioid receptor” value in series [2] is recorded as “No binding”. The “Emax% Antagonist Mode” value in series [3] was determined as 3%. Further, the Emax at 0.0046 µM in series [3] (setting [6]) was found to be 12%.

Consider `C[C@@H](NC(=O)[C@@H](N)Cc1ccc(O)cc1)C(=O)NCC(=O)N(C)[C@@H](Cc1ccccc1)C(=O)NCCO` [DAMGO, (2S)-2-[[2-[[(2R)-2-[[(2S)-2-Amino-3-(4-hydroxyphenyl)propanoyl]-amino]-propanoyl]amino]acetyl]-methylamino]-N-(2-hydroxyethyl)-3-phenylpropanamide, reference compound], for which, in series [3], the “EC20 of DAMGO” value is recorded as 1 nM, the “EC80 of DAMGO” value was determined as 18 nM, the “EC87 of DAMGO” value is on record as 30 nM and the “Emax% Antagonist Mode” value is given as 2%. In addition, in series [3] (setting [7]), the Emax stood at 0% and the Emax at 0.0046 µM is 0%.

The compound `Cc1cccc(N2CCN3C(=O)C(=O)N=C32)c1` [1b] registered a melting point of 220 to 223 °C. Besides, the Emax at 0.03 µM in series [1] is 12%. Further, the Emax in series [1] (setting [4]) was 94%. The Emax in series [1] (read-out: Emax% Agonist Mode) was found to be 13%. The “binding to the μ-opioid receptor” value in series [2] is “No binding”. In series [3], the “Emax% Antagonist Mode” value was 5%. For the same compound, in series [3] (setting [5]), the maximum response (Emax) stood at 13%. Moreover, in series [3] (setting [6]), the Emax came out at 10% and the Emax at 0.0046 µM was determined as 6%.

On to `Cc1ccc(N2CCN3C(=O)C(=O)N=C32)cc1` [1c, 1-(4-methylphenyl)-2,3-dihydro-1H-imidazo[1,2-a]imidazole-5,6-dione], for which the melting point is 236 to 238 °C. Also, the Emax at 0.03 µM in series [1] was found to be 12%. Also, the Emax in series [1] (setting [4]) came out at 97%. Also, the Emax in series [1] (read-out: Emax% Agonist Mode) was 15%. Moreover, the “binding to the μ-opioid receptor” value in series [2] is recorded as “No binding”. Also, in series [3] (setting [5]), the Emax was found to be 13%. For the same compound, in series [3] (setting [6]), the Emax was found to be 35% and the maximum response (Emax) at 0.0046 µM turned out to be 4%. For the same compound, the “pharmacological classification in words” value in series [3] (from cAMP functional data (with binding data for the modulator conclusion)) is listed as “weak antagonist properties”. For the same compound, in series [3] (from cAMP functional data (with binding data for the modulator conclusion); listed as 1-(4-methylphenyl)-2,3-dihydro-1H-imidazo[1,2-a]imidazole-5,6-dione), the “pharmacological classification in words” value was “negative allosteric modulator”. The compound also showed a Kb in series [3] (pKb Range Antagonist Mode) of 0.661 nM. Also, in series [3] (read-out: pKb Range Antagonist Mode (converted)), the Kb was 8.91 nM.
